Earlier results on one compound are cited in patent US20210386729A1, “METHODS FOR TREATING LIVER DISORDERS USING FXR AGONISTS” (NOVARTIS AG, priority 2016, published 2021).

For this data set the following is noted: clinical studies, PBC or NASH subjects; cited from earlier work.

As to `CC[C@H]1[C@@H](O)[C@@H]2[C@H](CC[C@]3(C)[C@@H]([C@H](C)CCC(=O)O)CC[C@@H]23)[C@@]2(C)CC[C@@H](O)C[C@@H]12` [OCA, 6α-ethyl-chenodeoxycholic acid], the pruritus entry is on record as “may be associated with increased pruritus”.
